From PubChem BioAssay AID248 (DTP/NCI, 2004)
Several values for one entry are separate records, joined by “and”; a condition that tells them apart may be missing. Equal entries are not always repeated. Toxic doses and inconclusive results are not listed.

System: L1210 leukemia ip in BDF1 mice, survival T/C
Assay: NCI In Vivo Anticancer Drug Screen. Data for tumor model L1210 Leukemia (intraperitoneal) in B6D2F1 (BDF1) mice
Settings: endpoint: mean survival time, higher = longer survival
In short: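 Mice bearing the transplanted tumor received compound or vehicle. Survival of the treated group was divided by that of the vehicle-treated control group to give the ratio.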

[1] = dose: 100.0 mg/kg/injection, schedule: Q01DX001 (ip), vehicle: carboxymethylcellulose (CMC)
[2] = dose: 200.0 mg/kg/injection, schedule: Q01DX001 (ip), vehicle: carboxymethylcellulose (CMC)
[3] = dose: 400.0 mg/kg/injection, schedule: Q01DX001 (ip), vehicle: carboxymethylcellulose (CMC)
[4] = dose: 100.0 mg/kg/injection, schedule: Q01DX001 (ip), vehicle: saline
[5] = dose: 100.0 mg/kg/injection, schedule: Q04DX003 (ip), vehicle: Klucel (hydroxypropylcellulose) (HPC)
[6] = dose: 200.0 mg/kg/injection, schedule: Q04DX003 (ip), vehicle: Klucel (hydroxypropylcellulose) (HPC)
[7] = dose: 400.0 mg/kg/injection, schedule: Q04DX003 (ip), vehicle: Klucel (hydroxypropylcellulose) (HPC)
[8] = dose: 100.0 mg/kg/injection, schedule: Q01DX009 (ip), vehicle: Klucel (hydroxypropylcellulose) (HPC)
[9] = dose: 200.0 mg/kg/injection, schedule: Q01DX009 (ip), vehicle: Klucel (hydroxypropylcellulose) (HPC)
[10] = dose: 400.0 mg/kg/injection, schedule: Q01DX009 (ip), vehicle: Klucel (hydroxypropylcellulose) (HPC)
[11] = dose: 75.0 mg/kg/injection, schedule: Q01DX001 (ip), vehicle: saline
[12] = dose: 150.0 mg/kg/injection, schedule: Q01DX001 (ip), vehicle: saline
[13] = dose: 100.0 mg/kg/injection, schedule: Q01DX009 (ip), vehicle: saline
[14] = dose: 100.0 mg/kg/injection, schedule: Q04DX003 (ip), vehicle: saline
[15] = dose: 200.0 mg/kg/injection, schedule: Q01DX009 (ip), vehicle: saline
[16] = dose: 200.0 mg/kg/injection, schedule: Q04DX003 (ip), vehicle: saline
[17] = dose: 400.0 mg/kg/injection, schedule: Q04DX003 (ip), vehicle: saline
[18] = dose: 100.0 mg/kg/injection, schedule: Q04DX003 (ip), vehicle: saline with Tween-80

## CCOP(=O)(Nc1ccc2c(c1)Cc1cc(Br)ccc1-2)OCC
dose: 50.0 mg/kg/injection, schedule: Q01DX001 (ip), vehicle: carboxymethylcellulose (CMC)
  T/C: 105 % of control
[1]
  T/C: 92 % of control
[2]
  T/C: 105 % of control
[3]
  T/C: 108 % of control

## CCCc1c(OCC)c(OC)c2c3c(c(-c4c(C)cc5c(CCC)c(OCC)c(OC)c6c5c4OC6NNc4ccccc4)c(C)cc13)OC2NNc1ccccc1 (centres undefined)
dose: 75.0 mg/kg/injection, schedule: Q01DX001 (ip), vehicle: Klucel (hydroxypropylcellulose) (HPC)
  T/C: 98 % of control
dose: 150.0 mg/kg/injection, schedule: Q01DX001 (ip), vehicle: Klucel (hydroxypropylcellulose) (HPC)
  T/C: 93 % of control
dose: 300.0 mg/kg/injection, schedule: Q01DX001 (ip), vehicle: Klucel (hydroxypropylcellulose) (HPC)
  T/C: 91 % of control
dose: 300.0 mg/kg/injection, schedule: Q04DX003 (ip), vehicle: Klucel (hydroxypropylcellulose) (HPC)
  T/C: 87 % of control

## O=C(Nc1cc2ccccc2nc1-c1ccccc1)c1ccccc1
[4]
  T/C: 92 % of control

## COc1cc(CNC(=O)CCN2CC2)ccc1O
dose: 50.0 mg/kg/injection, schedule: Q04DX003 (ip), vehicle: Klucel (hydroxypropylcellulose) (HPC)
  T/C: 109 % of control
[5]
  T/C: 98 % of control
[6]
  T/C: 95 % of control
[7]
  T/C: 97 % of control

## COc1ccc(C(C(N)=O)N2CCOCC2)cc1 (centres undefined)
[8]
  T/C: 98 % of control
[5]
  T/C: 95 % of control
[9]
  T/C: 100 % of control
[6]
  T/C: 98 % of control
[10]
  T/C: 97 % of control
[7]
  T/C: 104 % of control

## Cc1nc(N)sc1N=Nc1cccc(Cl)c1Cl
[11]
  T/C: 88 % of control
[12]
  T/C: 92 % of control
dose: 300.0 mg/kg/injection, schedule: Q01DX001 (ip), vehicle: saline
  T/C: 93 % of control

## Nc1nc(=O)n(CC(=O)c2ccco2)cc1F
[13]
  T/C: 100 % of control
[14]
  T/C: 95 % of control
[15]
  T/C: 94 % of control
[16]
  T/C: 97 % of control
[17]
  T/C: 93 % of control

## COc1cccc(C(=O)C=C(C(F)(F)F)C(F)(F)F)c1
dose: 25.0 mg/kg/injection, schedule: Q04DX003 (ip), vehicle: saline with Tween-80
  T/C: 95 % of control
dose: 50.0 mg/kg/injection, schedule: Q04DX003 (ip), vehicle: saline with Tween-80
  T/C: 97 % of control
[18]
  T/C: 94 % of control

## C/C(=C/c1c(Br)cc(Br)c(N)c1Br)C(=O)O
[14]
  T/C: 100 % of control
[16]
  T/C: 102 % of control
[17]
  T/C: 102 % of control

## O=c1[nH][nH]c(=O)c2c(C3OC(CO)C(O)C3O)[nH]nc12 (centres undefined)
dose: 100.0 mg/kg/injection, schedule: Q01DX005 (ip), vehicle: saline
  T/C: 90 % of control
dose: 200.0 mg/kg/injection, schedule: Q01DX005 (ip), vehicle: saline
  T/C: 97 % of control

## CCCCOc1ccc(/C=N/NC(=S)Nc2ccccc2)cc1
[8]
  T/C: 97 % of control
[9]
  T/C: 98 % of control
[10]
  T/C: 95 % of control

## CCCCP(=O)(CCC)CCCC
[18]
  T/C: 99 % of control
dose: 200.0 mg/kg/injection, schedule: Q04DX003 (ip), vehicle: saline with Tween-80
  T/C: 94 % of control
dose: 400.0 mg/kg/injection, schedule: Q04DX003 (ip), vehicle: saline with Tween-80
  T/C: 87 % of control

## CCOc1ccc([N+](=O)[O-])cc1C1N(Cc2ccccc2OC)CCCN1Cc1ccccc1OC
[1]
  T/C: 98 % of control
[2]
  T/C: 98 % of control
[3]
  T/C: 104 % of control

## O=C(Cn1cc(F)c(=O)[nH]c1=O)N1CCC2(CC1)SSC1(CCN(C(=O)Cn3cc(F)c(=O)[nH]c3=O)CC1)S2
[13]
  T/C: 96 % of control
[14]
  T/C: 104 % of control
[15]
  T/C: 96 % of control
[16]
  T/C: 97 % of control
[17]
  T/C: 97 % of control

## CCCCSP(=S)(SCCCC)c1ccc(Cl)cc1
dose: 100.0 mg/kg/injection, schedule: Q04DX002 (ip), vehicle: saline with Tween-80
  T/C: 90 % of control
dose: 200.0 mg/kg/injection, schedule: Q04DX002 (ip), vehicle: saline with Tween-80
  T/C: 93 % of control
dose: 400.0 mg/kg/injection, schedule: Q04DX002 (ip), vehicle: saline with Tween-80
  T/C: 97 % of control

## CN1C(=O)NC2ON=C(c3ccccc3)C2C1=O (centres undefined)
[8]
  T/C: 103 % of control
[5]
  T/C: 100 % of control
[9]
  T/C: 104 % of control
[6]
  T/C: 103 % of control
[10]
  T/C: 104 % of control
[7]
  T/C: 100 % of control

## Nc1nc(-c2ccccc2)c(CCCNC(=O)c2ccc([N+](=O)[O-])cc2)c(=O)[nH]1
[5]
  T/C: 93 % of control
[6]
  T/C: 93 % of control
[7]
  T/C: 90 % of control

## c1ccc(C2=Nc3ccccc3-c3ccccc3N2)cc1
dose: 100.0 mg/kg/injection, schedule: Q01DX001 (ip), vehicle: saline with Tween-80
  T/C: 100 % of control
dose: 200.0 mg/kg/injection, schedule: Q01DX001 (ip), vehicle: saline with Tween-80
  T/C: 103 % of control
dose: 400.0 mg/kg/injection, schedule: Q01DX001 (ip), vehicle: saline with Tween-80
  T/C: 106 % of control

## CC/C(=C/c1ccc2c(c1)OCO2)[N+](=O)[O-]
dose: 25.0 mg/kg/injection, schedule: Q01DX001 (ip), vehicle: saline
  T/C: 100 % of control
dose: 50.0 mg/kg/injection, schedule: Q01DX001 (ip), vehicle: saline
  T/C: 100 % of control
[4]
  T/C: 100 % of control

## COc1ccccc1N=C(N)N=C(N)N
[11]
  T/C: 96 % of control
[12]
  T/C: 104 % of control

## O=S1(=O)C=Cc2ccccc21
[4]
  T/C: 106 % of control
dose: 100.0 mg/kg/injection, schedule: Q01DX009 (ip), vehicle: acetone
  T/C: 92 % of control
[14]
  T/C: 95 % of control
dose: 200.0 mg/kg/injection, schedule: Q01DX001 (ip), vehicle: saline
  T/C: 106 % of control
dose: 200.0 mg/kg/injection, schedule: Q01DX009 (ip), vehicle: acetone
  T/C: 91 % of control
[16]
  T/C: 97 % of control
dose: 400.0 mg/kg/injection, schedule: Q01DX001 (ip), vehicle: saline
  T/C: 100 % of control
dose: 400.0 mg/kg/injection, schedule: Q01DX009 (ip), vehicle: acetone
  T/C: 97 % of control
[17]
  T/C: 88 % of control

## CC12CC[C]([Hg][I])(CC1)C2(C)C
dose: 6.25 mg/kg/injection, schedule: Q01DX009 (ip), vehicle: saline with Tween-80
  T/C: 101 % of control and 103 % of control
dose: 12.5 mg/kg/injection, schedule: Q01DX009 (ip), vehicle: saline with Tween-80
  T/C: 95 % of control and 110 % of control
dose: 25.0 mg/kg/injection, schedule: Q01DX009 (ip), vehicle: saline with Tween-80
  T/C: 98 % of control and 211 % of control
dose: 50.0 mg/kg/injection, schedule: Q01DX009 (ip), vehicle: saline with Tween-80
  T/C: 91 % of control

## CCSc1cccc(C(=O)O)c1
[1]
  T/C: 102 % of control
[2]
  T/C: 94 % of control
[3]
  T/C: 100 % of control

## C=CC[n+]1ccc2ccccc2c1
dose: 25.0 mg/kg/injection, schedule: Q01DX009 (ip), vehicle: saline
  T/C: 108 % of control
dose: 50.0 mg/kg/injection, schedule: Q01DX009 (ip), vehicle: saline
  T/C: 102 % of control
[13]
  T/C: 105 % of control

## OCC1(O)OCC(O)C(O)C1O (centres undefined)
[13]
  T/C: 89 % of control
[15]
  T/C: 94 % of control
dose: 400.0 mg/kg/injection, schedule: Q01DX009 (ip), vehicle: saline
  T/C: 90 % of control
dose: 800.0 mg/kg/injection, schedule: Q01DX009 (ip), vehicle: saline
  T/C: 90 % of control

## CCC(=N)C1CCCCC1
dose: 75.0 mg/kg/injection, schedule: Q01DX001 (ip), vehicle: carboxymethylcellulose (CMC)
  T/C: 102 % of control
dose: 150.0 mg/kg/injection, schedule: Q01DX001 (ip), vehicle: carboxymethylcellulose (CMC)
  T/C: 93 % of control

## CN(C)C1=CS(=O)(=O)C1
[11]
  T/C: 94 % of control
[12]
  T/C: 97 % of control

## Cc1ccccc1OCCO
[14]
  T/C: 101 % of control
[16]
  T/C: 97 % of control
[17]
  T/C: 106 % of control
